Results: patent US20170112940A1, “Modified Collagen Hybridizing Peptides And Uses Thereof” (University of Utah Research Foundation, priority 2015, published 2017)

How the values were obtained:
[1] = Melting temperature (melting curve) of the peptides in 1× PBS; format: physicochemical; details: FIG. 1
Protocol: The sample concentration tested is 200 uM. 7 is Ac-GPO-GPO-GPO-GPO-GPO-GPO-GPO (This is positive control). 7-1azGly is Ac-GPO-GPO-GPO-azGlyPO-GPO-GPO-GPO. 7-2azGly is Ac-GPO-GPO-azGlyPO-GPO-azGlyPO-GPO-GPO. Melting Temperature of 7 is 54° C. Melting Temperature of 7-1azGly is 65° C. Melting Temperature of 7-2azGly is 77° C.

gelatin = assay: Gelatin binding: peptide remaining on crosslinked gelatin film after binding and washing; details: FIG. 3
Protocol: 10: 10 μM added to crosslinked gelatin gel. […] 7 is CF-GGG-GPO-GPO-GPO-GPO-GPO-GPO-GPO (positive control). […] 7-2azGly is CF-GGG-GPO-GPO-azGlyPO-GPO-azGlyPO-GPO-GPO. Random9 is Scramble sequence of CF-GGG-(GPO)9 The sequence is CF-GGG-PGO-GPG-POP-OGO-GOP-PGO-OPG-GOO-PPG. (negative control).

BSA = BSA (Bos taurus, UniProt P02769); assay: Fluorescent staining of SDS-PAGE, BSA lane; format: binding; details: SDS-PAGE stained with 35 μM peptide, 50 ug BSA (lane 2), FIG. 4
Protocol: (§1) FIGS. 4A and 4B show A) Fluorescent image of SDS-PAGE stained with 35 μM of CFG3(GPO)3AzGPO(GPO)3; B) SDS-PAGE stained with Commassie Blue. Lane 1: MW marker, Lane 2: 50 ug BSA, Lane 3: 5 ug Denatured Collagen (col), Lane 4: 10 ug Denatured Collagen (col). Commasie blue (4B) stains collagen (Lanes 3 and 4) as well as BSA (lane 2).

Denatured Collagen = assay: Fluorescent staining of SDS-PAGE, denatured collagen lanes; format: binding; details: SDS-PAGE stained with 35 μM peptide, 5 ug and 10 ug denatured collagen (lanes 3 and 4), FIG. 4
Protocol: as §1

[2] = listed as CFG3(GPO)3AzGPO(GPO)3

Sequence of BSA (P02769 25-607): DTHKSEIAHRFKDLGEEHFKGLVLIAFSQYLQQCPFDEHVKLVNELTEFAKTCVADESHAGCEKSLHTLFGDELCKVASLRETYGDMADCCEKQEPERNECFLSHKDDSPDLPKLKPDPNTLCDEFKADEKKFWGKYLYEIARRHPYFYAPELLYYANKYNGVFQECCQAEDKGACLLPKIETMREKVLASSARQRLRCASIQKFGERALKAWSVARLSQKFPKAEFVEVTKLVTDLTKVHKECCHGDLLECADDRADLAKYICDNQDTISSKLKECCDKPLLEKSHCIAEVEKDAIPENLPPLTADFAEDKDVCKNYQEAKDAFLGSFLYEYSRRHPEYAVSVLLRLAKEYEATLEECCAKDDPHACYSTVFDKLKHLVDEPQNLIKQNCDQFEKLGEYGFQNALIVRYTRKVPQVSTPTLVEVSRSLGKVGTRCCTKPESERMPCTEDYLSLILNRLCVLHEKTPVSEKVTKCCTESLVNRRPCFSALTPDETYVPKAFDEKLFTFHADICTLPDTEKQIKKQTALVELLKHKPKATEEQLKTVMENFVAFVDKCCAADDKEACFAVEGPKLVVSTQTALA

| triple helical structure indicated by sigmoidal shape of the melting curve [1] | Substance | binding affinity to gelatin (comparison in words) (gelatin) | other results |
| --- | --- | --- | --- |
| has triple helical structure | Ac-GPO-GPO-GPO-azGlyPO-GPO-GPO-GPO [7-1azGly] | – | – |
| – | CF-GGG-GPO-GPO-azGlyPO-GPO-azGlyPO-GPO-GPO [7-2azGly] | further increases the binding affinity to gelatin | – |
| – | CF-GGG-GPO-GPO-GPO-azGlyPO-GPO-GPO-GPO [7-1azGly] | much higher than GPO7 | staining of / binding to denatured BSA (BSA; listed as Aza-CHP): does not bind to denatured BSA; staining of / binding to denatured BSA (BSA; [2]): almost no signal from lane 2; staining of / binding to denatured collagen (Denatured Collagen; listed as Aza-CHP): binds to denatured collagen; staining of / binding to denatured collagen (Denatured Collagen; [2]): stains only collagen |
| has triple helical structure | Ac-GPO-GPO-azGlyPO-GPO-azGlyPO-GPO-GPO [7-2azGly] | – | – |
